Data reported in patent US10350262B2, “MCJ agonists and uses therefor” (priority 2015, dated 2019).
“Also recorded” adds a separate entry of the source. No end group written: not given here.

Experiments:
MCF7/ADR cells = test: Viable cell count of MCF7/ADR cells (Trypan blue); assay type: cell-based, human; details: doxorubicin 3 μM, 2 days
Description: (§1) FIG. 15A provides results of Western blot analysis for MCJ in MCF7 cells and MCF7/ADR (ADR) cells. Actin was used as loading control. […] Viable cells were counted 2 days later.
(§2) FIG. 16A-B provides graphs showing response to MCJ agonists. […] Cells were harvested 2 days later and viable cells were counted. […] Mice were harvested at day 4. The size of a tumor over time was determined by caliper measurements, and is represented as a percentage relative to the initial size prior to the treatment. p<0.05 as determined by a paired t-test.
(§3) Cell Culture. MCF7 and MCF7/ADR cells were a kind gift from Dr. Ken Cowan (National Cancer Institute, Bethesda, Md.). MCF7/siMCJ cells were generated by stable transfection with a plasmid expressing a shRNA for MCJ (siMCJ) as described in Hatle, K. M., et al., Mol Cell Biol 27, 2952-2966 (2007). All cells were maintained at 37 C, 5% CO2 in RPMI-1640 (Life technologies, Inc., Gaithersburg, Md.) containing 5% FBS.
(§4) Cell count. Cells were trypsinized, washed, and resuspended in medium. Number of viable cells was measured by counting using Trypan blue dye to exclude dead cells (visualized as blue).
(§5) Doxorubicin and peptides treatment in vitro. Doxorubicin (Sigma-Aldrich) was used at 3 μM final concentration. The three different peptides described in the examples (SEQ ID NO: 2, 18 or 6) were resuspended at 10 mM stock concentration in PBS. The peptides were used a different concentration as indicated for each example (1, 10, or 50 μM). Cells were plated the day prior the treatment (18-20 h prior to the treatment). For treatments with peptides only, peptides were added to the plates at the indicated concentrations, and after 2 or 3 days (as indicated for each example) cells were trypsinized, resuspended, and counted. For the treatment with doxorubicin and peptides, cells were pretreated with the corresponding peptide for 4 h prior to adding doxorubicin.
MCF7/ADR cells were incubated (using standard procedures) for three days in media alone or in media plus three different MCJ based polypeptides each at a concentration of 50 μM in media. The cells of set one were incubated in media and served as a control set. The cells of set two were incubated in media that included a 50 μM concentration of a MCJ polypeptide without a targeting agent polypeptide. The amino acid sequence of the N-MCJ polypeptide without a targeting agent polypeptide was […] (SEQ ID NO:2). The cells of set three were incubated in media that included a 50 μM concentration of a TAT-N-MCJ polypeptide. The amino acid sequence of the TAT-N-MCJ polypeptide was: […] (SEQ ID NO:18). […]

[1] = tested on: mammary tumors in MCJ KO MMTV mice; test: Doxorubicin and peptide treatment in vivo, mammary tumor size in MCJ KO MMTV mice; parameters: species or system mouse
Description: as §2
(§6) Mice. […] MCJ KO mice were crossed with the previously described MMTV-PyMT mice [see: Guy, C. T., et. al., Mol Cell Biol 12, 954-961 (1992)] to generate MCJ KO MMTV mice. Wildtype MMTV mice and MCJ KO MMTV mice were used for the experiments. All mice were housed under sterile conditions at the animal care facility at the University of Vermont. The procedures were approved by the University of Vermont Institutional Animal Care and Use Committee.
Doxorubicin and peptides treatment in vivo. MTV mice and MCJ KO MMTV mice were used to assay response to doxorubicin and MCJ peptides. The treatments were initiated around 2.5-3 months of age when the mammary tumor these mice develop reach 300 mm^3. […] Perpendicular tumor diameters were measured using a vernier scale caliper and tumor volume estimated using the formula for ellipsoid (width×high×length)/2. […]
The size of a tumor over time was determined by caliper measurements, and is represented as a percentage relative to the initial size prior to the treatment. p<0.05 as determined by a paired t-test. […]

MCF7 cells = test: Viable cell count of MCF7 cells (Trypan blue); assay type: cell-based, human; details: doxorubicin 3 μM
Excerpt: as §1, §3, §4, §5
MCF7 cells and MCF7/ADR cells were incubated (using standard procedures) for two days in media alone or in media that included different concentrations of the TAT-N-MCS-MTS polypeptide having the amino acid sequence set forth as: […]

[2] = tested on: mammary tumors in MMTV mice; test: Doxorubicin treatment in vivo, mammary tumor size in MMTV mice; parameters: species or system mouse; details: doxorubicin 2 mg/Kg i.p. every other day for two weeks, n=4
Excerpt: as §6
Doxorubicin and peptides treatment in vivo. MTV mice and MCJ KO MMTV mice were used to assay response to doxorubicin and MCJ peptides. The treatments were initiated around 2.5-3 months of age when the mammary tumor these mice develop reach 300 mm^3. Doxorubicin was administered intreperitoneal in PBS (100 μl per mouse) at a dose of 2 mg/Kg. TAT-N-MCJ-mts peptide (SEQ ID NO: 6) was administered at the time of doxorubicin by a subcutaneous injection in PBS (100 μl per mouse) at a dose of 10 mg/Kg. Administrations of doxorubicin and peptide were performed every other day for the indicated period of time. Perpendicular tumor diameters were measured using a vernier scale caliper and tumor volume estimated using the formula for ellipsoid (width×high×length)/2. […]
The size of a tumor over time was determined by caliper measurements, and is represented as a percentage relative to the initial size prior to the treatment. p<0.05 as determined by a paired t-test.

[3] = mouse
Description: MCF7/ADR cells were treated with doxorubicin, TAT-N-MCJ-mts peptide alone or in combination. […] Thus, at lower doses, MCJ agonists could overcome chemo-resistance of breast cancer cells in vitro. A study was also performed that tested the effect of the TAT-N-MCJ-mts peptide in combination with chemotherapy in vivo using the MMTV mammary tumor mouse model. […] Therefore MCJ KO MMTV mice were treated with doxorubicin alone or doxorubicin and the TAT-N-MCJ-mts peptide and followed tumor size.

Compound | expansion of cells (viable cells) (MCF7/ADR cells) | tumor size over time ([1]; doxorubicin 2 mg/Kg i.p. every other day for two weeks, n=4) | tumor size (percentage relative to initial size) ([1]; doxorubicin alone 2 mg/Kg i.p. at day 0, 2 and 3, harvested day 4, n=3) | effect on viable cells (MCF7 cells; 2 days) | cell death (MCF7 cells; vs media alone) | tumor size over time [2] | toxicity in vivo (abnormality in treated mice) [3]
COc1cccc2c1C(=O)c1c(O)c3c(c(O)c1C2=O)C[C@@](O)(C(=O)CO)C[C@@H]3O[C@H]1C[C@H](N)[C@H](O)[C@H](C)O1 [doxorubicin] | no effect on the expansion of MCF7/ADR cells | continued growing or did not shrink; also recorded: less reduction in tumor size; also recorded: did not decrease, and continued to increase over time | continued growing | sensitive to doxorubicin | significant level of cell death | The size of the tumors in MMTV-Py mice was reduced; also recorded: tumor size in MMTV mice decreased over time | 
YGKKRRQRRGMAARGVIAPVGESLRYAEYLGTRTWVPKGLKSP [TAT-N-MCJ-MTS] |  |  |  |  |  |  | no obvious abnormality was observed
